ChEMBL document CHEMBL1201862, “PubChem BioAssay data set” (2004)
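Method: 48-hour compound exposure of cells in 96-well plates, five concentrations, linear interpolation of endpoints. GI50: concentration for 50% inhibition of growth.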 Active and inactive are the calls of the source. Rule as the data show it: active = GI50 up to about 1.1 µM and inactive = higher.

Assays:
Test in all cases: DTP human tumour cell line panel, 48 h
[1] = tested on: A498
[2] = tested on: CAKI-1
[3] = tested on: DMS-114
[4] = tested on: EKVX
[5] = tested on: HCC 2998
[6] = tested on: HT-29
[7] = tested on: Hs-578T
[8] = tested on: NCI-H226
[9] = tested on: NCI-H460
[10] = tested on: NCI/ADR-RES
[11] = tested on: OVCAR-8
[12] = tested on: RXF 393
[13] = tested on: SF-268
[14] = tested on: SK-MEL-28
[15] = tested on: SK-OV-3
[16] = tested on: SN12C
[17] = tested on: SNB-75
[18] = tested on: SW-620
[19] = tested on: TK-10
[20] = tested on: U-251

Measured: GI50

CC1(C)CC(Nc2ccc(Nc3ccccc3)cc2)CC(C)(C)N1
inactive: [1] 28.2 µM | [2] 22.9 µM | [3] 21.2 µM | [4] 34.2 µM | [5] 15.7 µM | [6] 21.3 µM | [7] 25.4 µM | [8] 17.1 µM | [9] 27.9 µM | [10] 21.9 µM | [11] 30.1 µM | [12] 18 µM | [13] 43.3 µM | [14] 18.2 µM | [15] > 100 µM | [16] 48.6 µM | [17] 37.6 µM | [18] 21.8 µM | [19] 32.8 µM | [20] 26.1 µM

Cc1ccc(N(C(=O)CC(=O)N2N=C(c3ccccc3)C(/N=N/c3ccc([N+](=O)[O-])cc3)C2=O)C(=O)c2ccc(Cl)cc2)cc1 (stereo not drawn)
inactive: [1] 6.14 µM | [2] 28.4 µM | [3] 20 µM | [4] 99.5 µM | [5] 51.2 µM | [6] 31 µM | [8] 20.7 µM | [9] 19 µM | [11] 18.1 µM | [12] 5.16 µM | [13] 9.04 µM | [14] 48.5 µM | [15] 12.2 µM | [16] 18.5 µM | [17] 10.4 µM | [18] 21.6 µM | [19] 10.9 µM | [20] 6.27 µM

O=C1C(c2cnc3ccccc3n2)=C(O)c2ccccc21
inactive: [1] > 100 µM | [2] > 24.5 µM | [3] > 100 µM | [4] 19.1 µM | [5] 71.8 µM | [6] > 74.1 µM | [7] > 57.7 µM | [8] > 100 µM | [9] 6.9 µM | [10] > 100 µM | [11] > 75.7 µM | [12] 9.71 µM | [13] > 93.8 µM | [14] > 82.4 µM | [15] > 46.5 µM | [16] > 77.3 µM | [17] 22 µM | [18] > 56.2 µM | [19] 18.3 µM | [20] 58.6 µM
